Measurements as given in patent publication US4461899A, “Fluorenecarboxylic acid derivatives” (Diamond Shamrock Chemicals Company, priority 1982, dated 1984).

How the values were obtained:
[1] = tested on: Kentucky and Merion turfgrass mixture; experiment: Turfgrass growth retardation (height and fresh weight of clippings) after spraying; type: in vivo; conditions: vs control
Protocol: Two known plant growth regulants were similarly tested. Some grass samples were not treated, only fertilized, as controls. Before treatment, the grass was cut and then fertilized with a 20-20-20 water-soluble fertilizer. Three pots were sprayed per treatment. […] The pots were placed in a plant growth room and were watered daily. The grass was cut at 21, 49 and 84 days after being treated; the blade height and total fresh weight of the clippings were measured.

[2] = tested on: field grown tomato plants; experiment: Fruit set and phytotoxicity in field grown tomato plants; type: in vivo; conditions: for Increase Over Control (%) of fruit set: 24 days; for Fruit Set Per Plant (After 24 days): 24 days after treatment; for Increase (%) of fruit set: initial to 24 days
From the text: To determine fruit set effects by compounds of this invention, field grown tomato plants were foliage sprayed with the cis-2,5-dimethylpyrrolidine salt of […], 9-cis-2,5-dimethyl-1-pyrrolidinyl-2-chlorofluorene-9-carboxylic acid, methyl ester, and the commercial plant growth regulant, MAINTAIN CF-125 (methyl-2-chloro-9hydroxyfluorene-9-carboxylate, manufactured by U.S. Borax and Chemical Corp.). Rates of application employed were 5, 25, and 100 ppm when the tomato plants were in the late blooming to early fruit setting stage. Untreated plants were included in the test as controls. Five plants were sprayed for each chemical treatment. The number of fruit set and the degree of phytotoxicity to the plants were determined 24 days after treatment.

[3] = tested on: field grown tomato plants; experiment: Overall yield and fruit size of field grown tomatoes; type: in vivo; conditions: for Fruit Size, Green (% of Control): control 104.0 g; for Fruit Size, Red (% of Control): control 105.5 g
From the text: This example illustrates the effects of compounds of this invention on overall yield of tomatoes. For the test, field grown tomato plants, when in the early flowering stage, were foliage sprayed with the particular compounds of the invention designated below, and with the commercial product CF-125 (Maintain), at rates of 10, 50 and 500 ppm. These rates correspond to applications of 3.69 g, 18.54 g and 185.4 g/hectare, respectively. Each treatment consisted of five plants; the experimental design was a complete randomized block with three replications. A block of untreated plants was included as the control. The fruit was harvested by hand and separated into […] ripe fruit and marketable green fruit.

[4] = tested on: "Walter" variety tomato plants; experiment: Yield of "Walter" variety tomatoes, weekly harvest of mature red fruit; type: in vivo; conditions: for Total Fruit / Total Fruit, % of Control: weeks 1-6
From the text: Compounds of this invention were further tested as tomato yield enhancers as follows:
"Walter" variety tomato plants, in the early flowering stage, were foliage sprayed at a rate of 68.8 liters/hectare with compounds of this invention, and with the commercial product, CF-125. Each plot consisted of 20 plants; the experimental design was a completed randomized block with three replications. A plot of untreated plants was included as a control. Marketable, mature red tomatoes were harvested weekly, beginning 5 weeks after treatment.

plants being treated = conditions: background; in many instances; cited from earlier work
[5] = 1.12 kilogram/hectare, after 21 days
[6] = 1.12 kilogram/hectare, after 49 days
[7] = 1.12 kilogram/hectare, after 84 days
[8] = 2.24 kilogram/hectare, after 21 days
[9] = 2.24 kilogram/hectare, after 49 days
[10] = 2.24 kilogram/hectare, after 84 days
[11] = 4.48 kilogram/hectare, after 49 days
[12] = 4.48 kilogram/hectare, after 84 days

## COC(=O)C1(O)c2ccccc2-c2ccc(Cl)cc21 (stereo not shown) [MAINTAIN CF-125, methyl-2-chloro-9-hydroxyfluorene-9-carboxylate]
[1]; [5]
  % Reduction in Weight: 31%
  Reduction in Height: 36%
[1]; [6]
  % Reduction in Weight: 0%
  Reduction in Height: 3%
[1]; [7]
  % Reduction in Weight: 0%
  Reduction in Height: 0%
[1]; [8]
  % Reduction in Weight: 38%
  Reduction in Height: 42%
[1]; [9]
  % Reduction in Weight: 0%
  Reduction in Height: 0%
[1]; [10]
  % Reduction in Weight: 0%
  Reduction in Height: 0%
[1]; 4.48 kilogram/hectare, after 21 days
  Reduction in Height: 50%
[1]; [11]
  % Reduction in Weight: 4%
  Reduction in Height: 14%
[1]; [12]
  % Reduction in Weight: 0%
  Reduction in Height: 0%
[1]; third dosage column, printed 1.12 kilogram/hectare, after 21 days
  % Reduction in Weight: 52%
[2]; 5 ppm
  Increase Over Control (%) of fruit set: -35%
  Fruit Set Per Plant (After 24 days): 11.8
  Fruit Set Per Plant (Initial): 7.8
  Increase (%) of fruit set: 38%
[2]; 25 ppm
  Increase Over Control (%) of fruit set: -23%
  Fruit Set Per Plant (After 24 days): 12.6
  Fruit Set Per Plant (Initial): 8.4
  Increase (%) of fruit set: 50%
[2]; 100 ppm
  Increase Over Control (%) of fruit set: -55%
  Fruit Set Per Plant (After 24 days): 8.0
  Fruit Set Per Plant (Initial): 6.8
  Increase (%) of fruit set: 18%
[3]; 10 ppm
  Fruit Yield, Green (% of Control): 25 % of Control
  Fruit Yield, Red (% of Control): 24 % of Control
  Total Yield (% of Control): 25 % of Control
  Fruit Size, Green (% of Control): 104 % of Control
  Fruit Size, Red (% of Control): 97 % of Control
[3]; 50 ppm
  Fruit Yield, Green (% of Control): 12 % of Control
  Fruit Yield, Red (% of Control): 122 % of Control
  Total Yield (% of Control): 44 % of Control
  Fruit Size, Green (% of Control): 62 % of Control
  Fruit Size, Red (% of Control): 88 % of Control
[3]; 500 ppm
  Fruit Yield, Green (% of Control): 3 % of Control
  Fruit Yield, Red (% of Control): 79 % of Control
  Total Yield (% of Control): 29 % of Control
  Fruit Size, Green (% of Control): 54 % of Control
  Fruit Size, Red (% of Control): 108 % of Control
[4]; 5 ppm
  Fruit Yield (kg/plot): 25.6 kg/plot
  Total Yield Wt. % of Control: 108.0 % of Control
  Fruit harvested, Harvest Time (Week) 1: 34
  Fruit harvested, Harvest Time (Week) 2: 206
  Fruit harvested, Harvest Time (Week) 3: 139
  Fruit harvested, Harvest Time (Week) 4: 40
  Fruit harvested, Harvest Time (Week) 5: 29
  Fruit harvested, Harvest Time (Week) 6: 178
  Total Fruit: 626
  Total Fruit, % of Control: 109 % of Control
[4]; 10 ppm
  Fruit Yield (kg/plot): 15.3 kg/plot
  Total Yield Wt. % of Control: 64.8 % of Control
  Fruit harvested, Harvest Time (Week) 1: 6
  Fruit harvested, Harvest Time (Week) 2: 192
  Fruit harvested, Harvest Time (Week) 3: 92
  Fruit harvested, Harvest Time (Week) 4: 16
  Fruit harvested, Harvest Time (Week) 5: 4
  Fruit harvested, Harvest Time (Week) 6: 69
  Total Fruit: 379
  Total Fruit, % of Control: 66 % of Control
[4]; 50 ppm
  Fruit Yield (kg/plot): 2.6 kg/plot
  Total Yield Wt. % of Control: 11.0 % of Control
  Fruit harvested, Harvest Time (Week) 1: 15
  Fruit harvested, Harvest Time (Week) 2: 18
  Fruit harvested, Harvest Time (Week) 3: 8
  Fruit harvested, Harvest Time (Week) 4: 0
  Fruit harvested, Harvest Time (Week) 5: 0
  Fruit harvested, Harvest Time (Week) 6: 2
  Total Fruit: 43
  Total Fruit, % of Control: 7 % of Control
Plants being treated
  phytotoxicity, in words: phytotoxic to the plants being treated
